{"source": "patent US9567347B2", "about": "“Use of small molecule inhibitors targeting the interaction between RAC GTPase and p67(phox)” (CHILDREN'S HOSPITAL MEDICAL CENTER, priority 2012, dated 2017)", "key": {"NOX4": {"target": "T1, NOX4 (Homo sapiens, UniProt Q9NPH5)", "T1 construct": "expressed in transfected cells; host or cells: primary mouse neutrophils (C57Bl/6 bone marrow), Amaxa nucleofection", "T1 sequence (Q9NPH5 1-578)": "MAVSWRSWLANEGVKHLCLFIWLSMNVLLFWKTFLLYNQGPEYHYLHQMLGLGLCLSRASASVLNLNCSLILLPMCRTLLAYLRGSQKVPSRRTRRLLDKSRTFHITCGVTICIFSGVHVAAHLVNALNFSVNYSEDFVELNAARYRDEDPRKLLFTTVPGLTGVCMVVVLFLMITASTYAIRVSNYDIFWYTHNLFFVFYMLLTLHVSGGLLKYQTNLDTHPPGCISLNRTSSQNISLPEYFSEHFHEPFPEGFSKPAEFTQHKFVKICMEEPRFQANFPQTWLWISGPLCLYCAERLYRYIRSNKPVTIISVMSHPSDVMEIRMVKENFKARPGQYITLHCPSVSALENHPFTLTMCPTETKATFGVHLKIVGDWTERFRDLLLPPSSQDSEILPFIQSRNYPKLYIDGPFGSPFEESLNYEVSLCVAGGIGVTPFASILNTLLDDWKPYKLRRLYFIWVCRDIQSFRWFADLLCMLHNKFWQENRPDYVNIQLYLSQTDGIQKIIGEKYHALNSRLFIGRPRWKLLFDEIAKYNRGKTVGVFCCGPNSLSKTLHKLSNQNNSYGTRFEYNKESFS", "T1 sequence (Q61462 1-192 partner)": "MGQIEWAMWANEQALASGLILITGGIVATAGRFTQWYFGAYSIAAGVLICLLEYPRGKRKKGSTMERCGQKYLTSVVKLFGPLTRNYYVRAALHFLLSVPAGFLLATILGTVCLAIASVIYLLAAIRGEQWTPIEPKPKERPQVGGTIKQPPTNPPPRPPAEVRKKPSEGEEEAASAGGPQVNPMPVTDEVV", "assay": "NOX4 mediated ROS production, luminol chemiluminescence with HRP", "format": "cell-based, mouse", "conditions": "10 μM, 30 min", "method": "Primary mouse neutrophils were suspended in 100 μl NucleofectorR solution with 10 μg plasmid pCDNA3-NOX4 encoding NOX4 or mock vector. Cells were transfected using a Cell Line V NucleofactorTMR kit (Amaxa Biosystem, Amaxa Inc.) and the NucleofectorTM program Y-001. Cells were recovered at 37° C. for 2 hours and subjected to the luminol chemiluminescence assay using 10 μM L012 and HRP (0.005 U·mL^−1) to record ROS produced by NOX4 expression.\nPhox-I1 was then applied to primary murine neutrophils expressing the constitutively active NOX4. […] To further rule out that Phox-I1 and Phox-I2 may simply act as scavengers of ROS, dHL-60 cells were pre-stimulated with fMLP for 30 min prior to treatment with Phox-I1 or Phox-I2."}, "[1]": {"test_system": "PMA-induced ROS production in human neutrophils", "assay": "luminol chemiluminescence assay of PMA induced ROS production", "format": "cell-based", "method": "Human neutrophils (2×10^5) were stimulated in HBSS supplemented with 0.1% BSA, 1 mM Ca2+, 1 mM Mg2+ and with fMLP (10 μM), PMA (300 nM) or glucose oxidase (200 mU/ml) for 30 min in the presence of 10 μM [8-amino-5-chloro-7-phenylpyrido[3,4-d]pyridazine-1,4(2H,3H)dione] (L012).\nChemiluminescence was measured using GloMax®-96 Microplate Luminometer (Promega) (Tarpey et al., (2004) Am J Physiol Regul Integr Comp Physiol 286: R431-R444, hereby incorporated by reference in its entirety). The generation of […] by the xanthine/xanthine oxidase was performed in PBS supplemented with xanthine oxidase (0.004 U), HRP (0.005 U·mL^−1) and L012, following the protocol described in Wind et al., (2010) Br J Pharmacol. 161, 885-898, hereby incorporated by reference in its entirety. The reaction was started by the addition of xanthine (0.5 mM)."}, "[2]": {"target": "T2, p67^phox binding to Rac1V12 (Homo sapiens, UniProt P19878)", "T2 construct": "using the pET30-HIS p67(1-212) plasmid; His; made in house; host or cells: E. coli BL21(DE3) for p67phox", "T2 sequence (P19878 1-212)": "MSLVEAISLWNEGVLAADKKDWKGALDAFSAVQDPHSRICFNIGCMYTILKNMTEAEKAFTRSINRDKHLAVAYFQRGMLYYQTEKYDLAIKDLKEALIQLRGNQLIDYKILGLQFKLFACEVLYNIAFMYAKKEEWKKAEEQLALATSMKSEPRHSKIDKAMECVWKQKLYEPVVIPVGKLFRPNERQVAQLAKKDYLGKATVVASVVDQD", "assay": "competition binding of p67phox with Rac1V12 by microscale thermophoresis", "conditions": "5 μM, 15 min prior to titration of Rac1V12", "method": "(§1) Proteins were labeled for microscale thermophoresis using the Monolith NT Protein Labeling Kit Red (Nano Temper Technologies) as recommended by the manufacturer. Binding reactions were carried out using the Monolith NT. 115 (Nano Temper Technologies). Binding data was analyzed using Graphpad Prizm to estimate Kd values. The arbitrary fluorescence value from the thermophoresis plots for the smallest compound titration was subtracted from every other data point (Delta depletion) prior to normalization to a Vmax of 100. In thermophoresis plots where there was no binding, a curve could not be fit and therefore no Vmax could be assigned. In these instances the highest delta depletion value was set to 100 and all data were normalized accordingly.\nNext, to perform a competition binding, p67^phox protein was first incubated with either 5 μM Phox-I1 or an equal volume of vehicle control for 15 min prior to titration of purified Rac1V12 protein. […] Thus, Phox-I1 binding to p67^phox is specific and not due to nonspecific effects, such as aggregation."}, "Rac1V12 protein": {"target": "T3, Rac1V12 protein (Homo sapiens, UniProt P63000, G12V)", "T3 construct": "GST; made in house", "assay": "microscale thermophoresis binding to Rac1V12", "conditions": "various concentrations", "method": "The p67^phox protein was expressed in BL21(DE3) bacteria (Stratagene) using the pET30-HIS p67(1-212) plasmid. Protein was purified using the QIAexpress Ni-NTA kit (Qiagen) or the GST Bind Resin Chromatography Kit (Novagen) for RacV12 and RacWT proteins. Mutagenesis was carried out using the Quick Change Lightening Site Directed Mutagenesis Kit (Stratagene).\nas §1\nNext, to perform a competition binding, p67^phox protein was first incubated with either 5 μM Phox-I1 or an equal volume of vehicle control for 15 min prior to titration of purified Rac1V12 protein. […]"}}, "note": "“Also recorded” adds a separate entry of the source."}
{"smiles": "COc1ccc2c(c1)C1C=C(c3ccccc3)NN1C(c1cccc([N+](=O)[O-])c1)O2", "note": "(stereo not shown) [Phox-I1]", "values": [{"measurement": "NOX4 ROS production", "setting": "NOX4", "result": "unresponsive"}, {"measurement": "effect on PMA-induced ROS production", "setting": "[1]", "result": "did not affect"}, {"measurement": "competition with Rac1V12 for p67^phox", "setting": "[2]", "result": "disruption of p67^phox binding to Rac1V12"}, {"measurement": "binding to Rac1V12", "setting": "Rac1V12 protein", "result": "unable to bind; also recorded: no detectable binding"}]}
